Reference: PubChem BioAssay (NCI)
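Cells were grown in 96-well plates and exposed to each compound for 48 hours at five concentrations; endpoints were interpolated linearly between bracketing concentrations, or set to the highest concentration if not reached. Here, GI50 denotes the concentration required for 50% inhibition of growth. TGI is the concentration that stops growth completely.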

Legend:
Experiment in all cases: NCI anticancer screen, dose series, 48 h
[1] = system: OVCAR-5 ovarian
[2] = system: UACC-257 melanoma
[3] = system: A549 NSCLC
[4] = system: HT29 colon
[5] = system: SF-268 CNS
[6] = system: SK-OV-3 ovarian
[7] = system: IGROV1 ovarian
[8] = system: NCI-H522 lung
[9] = system: RXF 393 renal
[10] = system: EKVX NSCLC

Structure (SMILES): O=C1[C@@H]2C3C=CC([C@H]4C(=O)N(CO)C(=O)[C@@H]34)[C@@H]2C(=O)N1CO
- TGI [1]: > 100 µM
- TGI [2]: > 100 µM
- TGI [3]: > 100 µM
- TGI [4]: > 100 µM
- TGI [5]: > 77.7 µM
- TGI [6]: > 100 µM
- TGI [7]: > 100 µM
- TGI [8]: > 56.5 µM
- TGI [9]: > 77.8 µM
- TGI [10]: > 100 µM

Structure (SMILES): COc1ccc(/C=C2\CC(C)CC3C2=NN(C(C)=O)C3c2ccc(OC)c(OC)c2)cc1OC (stereo not given)
- GI50 [1]: 17.5 µM
- TGI [1]: 33.8 µM
- GI50 [2]: 18.1 µM
- TGI [2]: 33.9 µM
- GI50 [3]: 18.7 µM
- TGI [3]: 77.8 µM
- GI50 [4]: 22.4 µM
- TGI [4]: > 100 µM
- GI50 [5]: 14.6 µM
- TGI [5]: 31.8 µM
- GI50 [6]: 31 µM
- TGI [6]: 75.7 µM
- GI50 [7]: 20.2 µM
- TGI [7]: 50.6 µM
- GI50 [8]: 14.5 µM
- TGI [8]: 40.4 µM
- GI50 [9]: 17.9 µM
- TGI [9]: 39 µM
- GI50 [10]: 19.2 µM
- TGI [10]: 70.1 µM

Structure (SMILES): N#Cc1c(-c2ccc(Cl)cc2)n([O-])c2ccccc2[n+]1=O
- GI50 [1]: 16.7 µM
- TGI [1]: 30.6 µM
- GI50 [2]: 18.2 µM
- TGI [2]: 34.4 µM
- GI50 [3]: 22.2 µM
- TGI [3]: 55.4 µM
- GI50 [4]: 17.2 µM
- TGI [4]: 42.2 µM
- GI50 [5]: 14.6 µM
- TGI [5]: 33.8 µM
- GI50 [6]: 24.8 µM
- TGI [6]: 72.3 µM
- GI50 [7]: 2.89 µM
- TGI [7]: 15.6 µM
- GI50 [8]: 14.7 µM
- TGI [8]: 38.5 µM
- GI50 [9]: 11 µM
- TGI [9]: 33.2 µM
- GI50 [10]: 5.63 µM
- TGI [10]: 20.5 µM

Structure (SMILES): O=S(O)CCCSSCCCCSSCCCS(=O)O
- TGI [1]: > 100 µM
- TGI [2]: > 100 µM
- TGI [3]: > 100 µM
- TGI [4]: > 100 µM
- TGI [5]: > 100 µM
- TGI [6]: > 100 µM
- TGI [7]: > 100 µM
- TGI [8]: > 100 µM
- TGI [9]: > 100 µM
- TGI [10]: > 100 µM

Structure (SMILES): C/C=C\C(C)=C/C(C)C(=O)CC(O)CC1CC(=O)NC(=O)C1 (stereo not given)
- TGI [1]: > 100 µM
- TGI [2]: > 100 µM
- TGI [3]: > 100 µM
- TGI [4]: > 100 µM
- TGI [5]: > 100 µM
- TGI [6]: > 100 µM
- TGI [7]: > 100 µM
- TGI [8]: 13.6 µM
- TGI [9]: > 100 µM
- TGI [10]: > 100 µM

Structure (SMILES): C#Cc1cccc(NC(=O)Nc2cccc(NC(=O)CCl)c2)c1
- GI50 [1]: 21.9 µM
- TGI [1]: 63.9 µM
- GI50 [2]: > 82.5 µM
- TGI [2]: > 82.5 µM
- GI50 [3]: > 82.5 µM
- TGI [3]: > 82.5 µM
- GI50 [4]: 17.8 µM
- TGI [4]: 53.5 µM
- GI50 [5]: 25.7 µM
- TGI [5]: > 82.5 µM
- GI50 [6]: 46.5 µM
- TGI [6]: > 82.5 µM
- GI50 [7]: 11.6 µM
- TGI [7]: 26 µM
- GI50 [8]: 15.2 µM
- TGI [8]: 48.6 µM
- GI50 [9]: 13.4 µM
- TGI [9]: 63.6 µM
- GI50 [10]: > 82.5 µM
- TGI [10]: > 82.5 µM
